# According to the supplement of paper PMC10307832:
# Legend:
# Experiment in all cases: relative viability (nuclei count vs DMSO), 5 days (fraction); higher = more cells survive
# [1] = compound: CC[C@H](C)N1C=C(C2=C(C=C(C=C21)C3=CN=C(C=C3)N4CCNCC4)C(=O)NCC5=C(C=C(NC5=O)C)C)C [GSK126] + CC(=O)c1c(C)c2cnc(Nc3ccc(N4CCNCC4)cn3)nc2n(C2CCCC2)c1=O [Palbociclib] (partner 0.5 µM)
# Outline: (§1)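 Each reported value is a median over duplicate plates. It expresses relative viability: treated-well nuclei count divided by vehicle-well nuclei count. Lung cancer cell lines in 1536-well plates were dosed by pin tool a day after seeding, alone with one drug or with a fixed anchor-drug dose plus five library-drug doses (not always all listed) in √10 steps, and nuclei were counted after 5 days.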
# [2] = compound: CC[C@H](C)N1C=C(C2=C(C=C(C=C21)C3=CN=C(C=C3)N4CCNCC4)C(=O)NCC5=C(C=C(NC5=O)C)C)C [GSK126] + C[C@]1(O)C[C@@H](c2nc(-c3ccc4ccc(-c5ccccc5)nc4c3)c3c(N)nccn32)C1 [Linsitinib] (partner 1 µM)
# Outline: as §1
# [3] = compound: CC[C@H](C)N1C=C(C2=C(C=C(C=C21)C3=CN=C(C=C3)N4CCNCC4)C(=O)NCC5=C(C=C(NC5=O)C)C)C [GSK126] + O=C(CCCCCCC(=O)Nc1ccccc1)NO [Vorinostat] (partner 1 µM)
# Outline: as §1
# [4] = compound: NS(=O)(=O)OC[C@@H]1C[C@@H](n2ccc3c(N[C@H]4CCc5ccccc54)ncnc32)C[C@@H]1O [MLN4924] + C[C@]1(O)C[C@@H](c2nc(-c3ccc4ccc(-c5ccccc5)nc4c3)c3c(N)nccn32)C1 [Linsitinib] (partner 1 µM)
# Outline: as §1
Cell Line,relative viability ([1]; first compound 0.08 µM),relative viability ([1]; first compound 0.253 µM),relative viability ([1]; first compound 0.8 µM),relative viability ([1]; first compound 2.53 µM),relative viability ([1]; first compound 8 µM),relative viability ([2]; first compound 0.08 µM),relative viability ([2]; first compound 0.253 µM),relative viability ([2]; first compound 0.8 µM),relative viability ([2]; first compound 2.53 µM),relative viability ([2]; first compound 8 µM),relative viability ([3]; first compound 0.08 µM),relative viability ([3]; first compound 0.253 µM),relative viability ([3]; first compound 0.8 µM),relative viability ([3]; first compound 2.53 µM),relative viability ([3]; first compound 8 µM),relative viability ([4]; first compound 0.1265 µM),relative viability ([4]; first compound 0.4 µM),relative viability ([4]; first compound 1.265 µM),relative viability ([4]; first compound 4 µM),relative viability ([4]; first compound 0.04 µM)
NCI-H2228,0.985,0.519,0.713,0.674,0.967,1.11,0.681,0.755,0.708,0.542,0.343,0.725,0.644,0.616,0.923,0.419,0.355,0.163,0.18,
HCC-78,0.473,0.38,0.497,0.461,0.492,0.662,0.547,0.518,0.465,0.47,0.429,0.402,0.413,0.437,0.452,0.355,0.628,0.135,0.147,0.556
CAL-12T,0.491,0.458,0.515,0.416,0.41,0.964,0.94,0.78,0.918,0.868,0.852,0.814,0.614,0.777,0.9,0.636,0.237,0.135,0.143,0.717
SK-LU-1,0.402,0.364,0.412,0.389,0.414,1.31,1.07,1.11,1.44,1.25,0.852,0.684,0.781,0.776,0.905,0.443,0.19,0.181,0.216,0.747
LU99A,0.444,0.439,0.379,0.39,0.451,0.52,0.513,0.605,0.503,0.652,0.506,0.484,0.443,0.404,0.561,0.332,0.254,0.147,0.177,0.469
RERF-LC-KJ,1.15,1.27,1.02,1.04,1.09,0.908,0.909,0.852,0.884,0.901,0.747,0.791,0.654,0.716,0.827,0.463,0.198,0.188,0.234,0.64
NCI-H2126,0.343,0.359,0.327,0.39,0.354,0.759,0.732,0.725,0.721,0.713,0.867,0.789,0.829,0.805,0.783,0.69,0.576,0.327,0.391,0.747
LXF-289,0.586,0.625,0.588,0.602,0.629,1.02,1,0.995,0.915,1,0.8,0.832,0.718,0.787,0.707,0.645,0.417,0.224,0.143,0.785
BEN,0.482,0.41,0.5,0.506,0.473,1.19,0.953,0.813,0.893,0.653,0.658,0.528,0.503,0.617,0.617,0.464,0.319,0.17,0.188,0.765
NCI-H1993,0.751,0.605,0.606,0.797,0.632,0.827,0.713,0.728,0.752,0.734,0.921,0.779,0.79,1.02,1.1,0.719,0.68,0.632,0.584,0.937
SW 1573,0.496,0.472,0.435,0.361,0.403,0.813,0.761,0.743,0.816,0.746,1.02,0.704,0.681,0.735,0.852,0.766,0.389,0.0982,0.0789,0.928
NCI-H520,0.21,0.233,0.221,0.209,0.268,1.12,1.03,0.915,1.07,1.11,0.761,0.739,0.656,0.745,0.87,0.413,0.312,0.239,0.185,0.587
LCLC-97TM1,0.283,0.265,0.232,0.308,0.255,0.164,,0.179,0.225,0.204,0.771,0.8,0.717,0.812,0.691,0.23,0.156,0.103,0.131,0.191
HCC-827,0.492,0.54,0.486,0.483,0.469,1.03,0.965,0.948,0.875,0.964,0.893,0.929,0.798,0.925,0.919,0.527,0.468,0.228,0.211,0.801
NCI-H1975,0.633,0.591,0.636,0.561,0.627,1.02,1.01,0.983,0.96,0.987,0.708,0.676,0.741,0.645,0.67,1.17,0.825,0.234,0.226,0.991
